Measured values published in patent US9718832B2, “Hexahydrofuropyrroles as PDE1 inhibitors” (H. Lundbeck A/S, priority 2014, dated 2017).

What was measured:
Format in all cases: biochemical
Conditions in all cases: 15 nM tritium labelled cAMP, 1 h at room temperature, SPA beads
PDE1C = PDE1C (Homo sapiens, UniProt Q14123); experiment: PDE1 inhibition assay (PDE1C)
Description: (§1) PDE1A, PDE1B and PDE1C assays were performed as follows: the assays was performed in 60 μL samples containing a fixed amount of the PDE1 enzym1 (sufficient to convert 20-25% of the cyclic nucleotide substrate), a buffer (50 mM HEPES pH 7.6; 10 mM MgCl2; 0.02% Tween20), 0.1 mg/ml BSA, 15 nM tritium labelled cAMP and varying amounts of inhibitors. Reactions were initiated by addition of the cyclic nucleotide substrate, and reactions were allowed to proceed for 1 h at room temperature before being terminated through mixing with 20 μL (0.2 mg) yttrium silicate SPA beads (PerkinElmer). The beads were allowed to settle for 1 h in the dark before the plates were counted in a Wallac 1450 Microbeta counter. The measured signals were converted to activity relative to an uninhibited control (100%) and IC50 values were calculated using XIFit (model 205, IDBS).

PDE1B = PDE1B (Homo sapiens, UniProt Q01064); experiment: PDE1 inhibition assay (PDE1B)
Description: as §1

PDE1A = PDE1A (Homo sapiens, UniProt P54750); experiment: PDE1 inhibition assay (PDE1A)
Description: as §1

Chain of PDE1B (Q01064 whole entry): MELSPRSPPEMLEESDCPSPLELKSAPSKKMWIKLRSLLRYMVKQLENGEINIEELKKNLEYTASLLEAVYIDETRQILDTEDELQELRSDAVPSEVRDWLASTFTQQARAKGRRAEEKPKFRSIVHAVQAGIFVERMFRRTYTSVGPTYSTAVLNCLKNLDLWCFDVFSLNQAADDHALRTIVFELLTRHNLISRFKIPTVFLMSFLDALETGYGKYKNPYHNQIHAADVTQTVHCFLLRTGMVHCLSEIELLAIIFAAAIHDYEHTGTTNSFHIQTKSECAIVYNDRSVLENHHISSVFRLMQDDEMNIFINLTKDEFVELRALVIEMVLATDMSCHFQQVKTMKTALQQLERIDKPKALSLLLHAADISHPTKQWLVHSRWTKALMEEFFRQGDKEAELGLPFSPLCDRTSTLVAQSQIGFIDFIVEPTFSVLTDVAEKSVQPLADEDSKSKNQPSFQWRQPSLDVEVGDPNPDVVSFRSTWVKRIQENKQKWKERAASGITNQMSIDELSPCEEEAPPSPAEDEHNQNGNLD
Chain of PDE1A (P54750 whole entry): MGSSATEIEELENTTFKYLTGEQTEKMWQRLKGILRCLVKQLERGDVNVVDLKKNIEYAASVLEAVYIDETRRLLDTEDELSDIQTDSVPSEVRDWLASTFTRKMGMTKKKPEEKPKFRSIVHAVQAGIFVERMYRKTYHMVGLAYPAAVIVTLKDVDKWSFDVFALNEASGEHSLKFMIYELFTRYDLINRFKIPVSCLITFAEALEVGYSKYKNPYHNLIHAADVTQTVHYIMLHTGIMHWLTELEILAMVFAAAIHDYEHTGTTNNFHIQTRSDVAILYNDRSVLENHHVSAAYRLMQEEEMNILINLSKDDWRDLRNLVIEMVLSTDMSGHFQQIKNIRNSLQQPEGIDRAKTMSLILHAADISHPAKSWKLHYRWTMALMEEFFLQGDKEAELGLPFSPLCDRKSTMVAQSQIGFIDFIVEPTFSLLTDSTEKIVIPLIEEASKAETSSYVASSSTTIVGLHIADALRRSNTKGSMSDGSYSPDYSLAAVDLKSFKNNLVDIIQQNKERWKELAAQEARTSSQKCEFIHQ
Chain of PDE1C (Q14123 whole entry): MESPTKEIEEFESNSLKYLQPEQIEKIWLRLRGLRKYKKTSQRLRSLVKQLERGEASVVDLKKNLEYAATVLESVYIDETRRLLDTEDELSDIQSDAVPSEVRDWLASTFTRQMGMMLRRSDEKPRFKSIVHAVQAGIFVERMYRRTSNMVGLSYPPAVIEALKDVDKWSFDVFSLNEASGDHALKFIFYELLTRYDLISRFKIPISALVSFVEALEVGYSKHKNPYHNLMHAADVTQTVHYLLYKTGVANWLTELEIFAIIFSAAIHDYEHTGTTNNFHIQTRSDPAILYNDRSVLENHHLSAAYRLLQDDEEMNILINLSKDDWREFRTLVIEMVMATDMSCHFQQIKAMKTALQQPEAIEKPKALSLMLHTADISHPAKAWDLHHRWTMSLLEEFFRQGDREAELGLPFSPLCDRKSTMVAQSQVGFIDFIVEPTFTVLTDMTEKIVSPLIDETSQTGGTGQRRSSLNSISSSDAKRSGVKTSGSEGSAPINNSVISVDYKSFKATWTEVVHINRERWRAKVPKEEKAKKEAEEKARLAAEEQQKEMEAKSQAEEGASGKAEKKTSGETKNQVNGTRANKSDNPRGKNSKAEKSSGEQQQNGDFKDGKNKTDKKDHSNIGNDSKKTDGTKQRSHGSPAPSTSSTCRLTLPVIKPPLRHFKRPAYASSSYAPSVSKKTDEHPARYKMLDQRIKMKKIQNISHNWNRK

Row | IC50 (PDE1C) [µM] | IC50 (PDE1B) [µM] | IC50 (PDE1A) [µM] | Structure (SMILES)
1 | 0.12 | 0.12 | 0.16 | COc1ccc2c(N3CC[C@@H]4OCC[C@@H]43)ncnc2c1OC (single isomer, unassigned) [Compound 1]
2 | 2.8 | 3.7 | 3.2 | COc1ccc2c(N3CC[C@H]4OCC[C@H]43)ncnc2c1OC (single isomer, unassigned) [Compound 2]
